Data: publication PMC5493349, “Quaternary structure is an essential component that contributes to the sophisticated allosteric regulation mechanism in a key enzyme from Mycobacterium tuberculosis” (PLoS ONE, 2017)

How the values were obtained:
[1] = target: MtuDAH7PSF227D (Mycobacterium tuberculosis, UniProt O53512, F227D); type: biochemical
[2] = target: MtuDAH7PSG232P (Mycobacterium tuberculosis, UniProt O53512, G232P); type: biochemical
[3] = target: T1, wild-type MtuDAH7PS (Mycobacterium tuberculosis, UniProt O53512); conditions: cited from earlier work
[4] = target: T1, wild-type MtuDAH7PS; type: biochemical

For N[C@@H](Cc1ccccc1)C(=O)O [Phe, L-Phe], the “inhibition of dimeric variant MtuDAH7PSF227D” value [1] is given as 50%, the “inhibition of dimeric variant MtuDAH7PSG232P” value [2] is given as 50% and the “inhibition of wild-type enzyme by single amino acid, unsaturated E4P” value [3] is given as 50%.

In the case of N[C@@H](Cc1ccc(O)cc1)C(=O)O [Tyr, L-Tyr], the “inhibition of wild-type enzyme” value [4] is reported as “no inhibition”, the “inhibition of dimeric variant MtuDAH7PSF227D” value [1] is reported as 40% and the “inhibition of dimeric variant MtuDAH7PSG232P” value [2] is reported as 40%. The “inhibition of wild-type enzyme by single amino acid, unsaturated E4P” value [3] was 47%.
